Laboratory results reported in the NIST ThermoML archive (doi:10.1016/j.jct.2013.11.001).
± gives the expanded uncertainty stated by the source.

Experiment: cn = amount concentration of the nth substance listed, in mol/dm3
Settings: 298.15 K, 101 kPa, Liquid, c1 = 0.1; for speed of sound: Sing-around technique in a fixed-path interferometer; for mass density: Vibrating tube method

Compound	speed of sound [m/s]	mass density [kg/m3]
CCCCCCCCCCCC[N+](C)(C)C.[Br-] [dodecyltrimethylammonium bromide] + O	1502 ± 1.2	998.575 ± 0.11
CCCCCCCCCCCCCC[N+](C)(C)C.[Br-] [tetradecyltrimethylammonium bromide] + O	1499.5 ± 1.2	998.003 ± 0.11
